Results as given in US20230085307A1, “PYRIDAZINONE COMPOUND AND HERBICIDE” (NISSAN CHEMICAL CORPORATION, priority 2019, published 2023).

Columns and labels:
[1] = system: redroot pigweed; test: Test Example 4: herbicidal effect by soil treatment (Table 19, symbol N); format: in vivo, redroot pigweed (Amaranthus retroflexus)
Summary of the method: (§1)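 Step 1: sow seeds in sterilized diluvial soil, cover ~1.5 cm. Step 2: spray diluted emulsion onto soil surface at predetermined rate. Step 3: greenhouse, 25–30° C, three weeks. Step 4: grade effect on each plant by earlier criteria.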

[2] = system: persian speedwell; test: Test Example 4: herbicidal effect by soil treatment (Table 19, symbol R); format: in vivo, Persian speedwell (Veronica persica)
Summary of the method: as §1

[3] = system: redroot pigweed; test: Test Example 5: herbicidal effect by foliage application, plastic box (Table 20, symbol N); format: in vivo, redroot pigweed (Amaranthus retroflexus); conditions: foliage application, evaluated three weeks after application
Summary of the method: (§2)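 Foliar spray test: emulsion formulation diluted in water to a set application rate, sprayed onto 14-day-old plants raised in diluvial soil at 25° C to 30° C under glass. Both herbicidal effect and crop effect rated visually three weeks later.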

[4] = system: Italian ryegrass; test: Test Example 4: herbicidal effect by soil treatment (Table 19, symbol K); format: in vivo, Italian ryegrass (Lolium multiflorum)
Summary of the method: as §1

[5] = system: lambsquarters; test: Test Example 4: herbicidal effect by soil treatment (Table 19, symbol O); format: in vivo, lambsquarters (Chenopodium album)
Summary of the method: as §1

[6] = system: persian speedwell; test: Test Example 5: herbicidal effect by foliage application, plastic box (Table 20, symbol R); format: in vivo, Persian speedwell (Veronica persica); conditions: foliage application, evaluated three weeks after application
Summary of the method: as §2

[7] = system: southern crabgrass; test: Test Example 4: herbicidal effect by soil treatment (Table 19, symbol F); format: in vivo, southern crabgrass (Digitaria ciliaris)
Summary of the method: as §1

[8] = system: barnyard grass; test: Test Example 4: herbicidal effect by soil treatment (Table 19, symbol H); format: in vivo, barnyard grass (Echinochloa crus-galli)
Summary of the method: as §1

[9] = system: barnyard grass; test: Test Example 5: herbicidal effect by foliage application, plastic box (Table 20, symbol H); format: in vivo, barnyard grass (Echinochloa crus-galli); conditions: foliage application, evaluated three weeks after application
Summary of the method: as §2

[10] = system: barnyard grass; test: Test Example 3: herbicidal effect by foliage application, Wagner pot (Table 18, symbol H); format: in vivo, barnyard grass (Echinochloa crus-galli)
Summary of the method: (§3)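 Plants were sown in alluvial soil held under 0.1–0.5 cm standing water and grown 14 days in a greenhouse at 25–30 °C. An emulsifiable formulation, water-diluted to the set dose, was then sprayed onto the foliage, and effects were scored three weeks later using previously defined criteria.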

[11] = system: lambsquarters; test: Test Example 5: herbicidal effect by foliage application, plastic box (Table 20, symbol O); format: in vivo, lambsquarters (Chenopodium album); conditions: foliage application, evaluated three weeks after application
Summary of the method: as §2

[12] = system: rice flat sedge; test: Test Example 3: herbicidal effect by foliage application, Wagner pot (Table 18, symbol E); format: in vivo, rice flat sedge (Cyperus iria); conditions: 320 g/ha
Summary of the method: as §3

[13] = system: velvetleaf; test: Test Example 4: herbicidal effect by soil treatment (Table 19, symbol M); format: in vivo, velvetleaf (Abutilon theophrasti)
Summary of the method: as §1

[14] = system: wild oat; test: Test Example 4: herbicidal effect by soil treatment (Table 19, symbol I); format: in vivo, wild oat (Avena fatua)
Summary of the method: as §1

[15] = system: windgrass; test: Test Example 5: herbicidal effect by foliage application, plastic box (Table 20, symbol L); format: in vivo, windgrass (Apera spica-venti); conditions: foliage application, evaluated three weeks after application
Summary of the method: as §2

[16] = system: Chinese sprangletop; test: Test Example 3: herbicidal effect by foliage application, Wagner pot (Table 18, symbol D); format: in vivo, chinese sprangletop (Leptochloa chinensis)
Summary of the method: as §3

[17] = system: blackgrass; test: Test Example 5: herbicidal effect by foliage application, plastic box (Table 20, symbol J); format: in vivo, blackgrass (Alopecurus myosuroides); conditions: foliage application, evaluated three weeks after application
Summary of the method: as §2

[18] = system: chickweed; test: Test Example 5: herbicidal effect by foliage application, plastic box (Table 20, symbol P); format: in vivo, common chickweed (Stellaria media); conditions: foliage application, evaluated three weeks after application
Summary of the method: as §2

[19] = system: velvetleaf; test: Test Example 5: herbicidal effect by foliage application, plastic box (Table 20, symbol M); format: in vivo, velvetleaf (Abutilon theophrasti); conditions: foliage application, evaluated three weeks after application
Summary of the method: as §2

[20] = system: chickweed; test: Test Example 4: herbicidal effect by soil treatment (Table 19, symbol P); format: in vivo, common chickweed (Stellaria media)
Summary of the method: as §1

[21] = system: wild oat; test: Test Example 5: herbicidal effect by foliage application, plastic box (Table 20, symbol I); format: in vivo, wild oat (Avena fatua); conditions: foliage application, evaluated three weeks after application
Summary of the method: as §2

[22] = system: green foxtail; test: Test Example 4: herbicidal effect by soil treatment (Table 19, symbol G); format: in vivo, green foxtail (Setaria viridis)
Summary of the method: as §1

[23] = system: Italian ryegrass; test: Test Example 5: herbicidal effect by foliage application, plastic box (Table 20, symbol K); format: in vivo, Italian ryegrass (Lolium multiflorum); conditions: foliage application, evaluated three weeks after application
Summary of the method: as §2

[24] = system: windgrass; test: Test Example 4: herbicidal effect by soil treatment (Table 19, symbol L); format: in vivo, windgrass (Apera spica-venti)
Summary of the method: as §1

[25] = system: southern crabgrass; test: Test Example 5: herbicidal effect by foliage application, plastic box (Table 20, symbol F); format: in vivo, southern crabgrass (Digitaria ciliaris); conditions: foliage application, evaluated three weeks after application
Summary of the method: as §2

[26] = system: green foxtail; test: Test Example 5: herbicidal effect by foliage application, plastic box (Table 20, symbol G); format: in vivo, green foxtail (Setaria viridis); conditions: foliage application, evaluated three weeks after application
Summary of the method: as §2

[27] = system: blackgrass; test: Test Example 4: herbicidal effect by soil treatment (Table 19, symbol J); format: in vivo, blackgrass (Alopecurus myosuroides)
Summary of the method: as §1

## COc1ccc(-c2sc3ccc(F)cc3c2-c2c(O)c(C)nn(C)c2=O)cc1F [2-086]
[1]; 320 g/ha
  herbicidal effect rating, N: redroot pigweed: 4 (Herbicidal rate of 70% or more and less than 90%)
[2]; 320 g/ha
  herbicidal effect rating, R: persian speedwell: 5 (Herbicidal rate of 90% or more (almost completely withered))
[3]; 320 g/ha
  herbicidal effect on N: redroot pigweed: 4 (Herbicidal rate of 70% or more and less than 90%)
[4]; 320 g/ha
  herbicidal effect rating, K: Italian ryegrass: 0 (Herbicidal rate of 5% or less (almost no effect))
[5]; 320 g/ha
  herbicidal effect rating, O: lambsquarters: 5 (Herbicidal rate of 90% or more (almost completely withered))
[6]; 320 g/ha
  herbicidal effect on R: persian speedwell: 5 (Herbicidal rate of 90% or more (almost completely withered))
[7]; 320 g/ha
  herbicidal effect rating, F: southern crabgrass: 1 (Herbicidal rate of 5% or more and less than 20%)
[8]; 320 g/ha
  herbicidal effect rating, H: barnyard grass: 3 (Herbicidal rate of 40% or more and less than 70%)
[9]; 320 g/ha
  herbicidal effect on H: barnyard grass: 3 (Herbicidal rate of 40% or more and less than 70%)
[10]; 320 g/ha
  herbicidal effect on H (barnyard grass), rating 0-5: 3 (Herbicidal rate of 40% or more and less than 70%)
[11]; 320 g/ha
  herbicidal effect on O: lambsquarters: 4 (Herbicidal rate of 70% or more and less than 90%)
[12]
  herbicidal effect on E (rice flat sedge), rating 0-5: 5 (Herbicidal rate of 90% or more (almost completely withered))
[13]; 320 g/ha
  herbicidal effect rating, M: velvetleaf: 4 (Herbicidal rate of 70% or more and less than 90%)
[14]; 320 g/ha
  herbicidal effect rating, I: wild oat: 0 (Herbicidal rate of 5% or less (almost no effect))
[15]; 320 g/ha
  herbicidal effect on L: windgrass: 0 (Herbicidal rate of 5% or less (almost no effect))
[16]; 320 g/ha
  herbicidal effect on D (Chinese sprangletop), rating 0-5: 3 (Herbicidal rate of 40% or more and less than 70%)
[17]; 320 g/ha
  herbicidal effect on J: blackgrass: 0 (Herbicidal rate of 5% or less (almost no effect))
[18]; 320 g/ha
  herbicidal effect on P: chickweed: 5 (Herbicidal rate of 90% or more (almost completely withered))
[19]; 320 g/ha
  herbicidal effect on M: velvetleaf: 5 (Herbicidal rate of 90% or more (almost completely withered))
[20]; 320 g/ha
  herbicidal effect rating, P: chickweed: 0 (Herbicidal rate of 5% or less (almost no effect))
[21]; 320 g/ha
  herbicidal effect on I: wild oat: 0 (Herbicidal rate of 5% or less (almost no effect))
[22]; 320 g/ha
  herbicidal effect rating, G: green foxtail: 3 (Herbicidal rate of 40% or more and less than 70%)
[23]; 320 g/ha
  herbicidal effect on K: Italian ryegrass: 0 (Herbicidal rate of 5% or less (almost no effect))
[24]; 320 g/ha
  herbicidal effect rating, L: windgrass: 0 (Herbicidal rate of 5% or less (almost no effect))
[25]; 320 g/ha
  herbicidal effect on F: southern crabgrass: 0 (Herbicidal rate of 5% or less (almost no effect))
[26]; 320 g/ha
  herbicidal effect on G: green foxtail: 3 (Herbicidal rate of 40% or more and less than 70%)
[27]; 320 g/ha
  herbicidal effect rating, J: blackgrass: 0 (Herbicidal rate of 5% or less (almost no effect))

## Cc1nn(C)c(=O)c(-c2c(-c3ccccc3)sc3ccc(Cl)cc23)c1O [2-094]
[1]; 96 g/ha
  herbicidal effect rating, N: redroot pigweed: 5 (Herbicidal rate of 90% or more (almost completely withered))
[2]; 96 g/ha
  herbicidal effect rating, R: persian speedwell: 0 (Herbicidal rate of 5% or less (almost no effect))
[3]; 96 g/ha
  herbicidal effect on N: redroot pigweed: 3 (Herbicidal rate of 40% or more and less than 70%)
[4]; 96 g/ha
  herbicidal effect rating, K: Italian ryegrass: 0 (Herbicidal rate of 5% or less (almost no effect))
[5]; 96 g/ha
  herbicidal effect rating, O: lambsquarters: 3 (Herbicidal rate of 40% or more and less than 70%)
[6]; 96 g/ha
  herbicidal effect on R: persian speedwell: 1 (Herbicidal rate of 5% or more and less than 20%)
[7]; 96 g/ha
  herbicidal effect rating, F: southern crabgrass: 0 (Herbicidal rate of 5% or less (almost no effect))
[8]; 96 g/ha
  herbicidal effect rating, H: barnyard grass: 0 (Herbicidal rate of 5% or less (almost no effect))
[9]; 96 g/ha
  herbicidal effect on H: barnyard grass: 0 (Herbicidal rate of 5% or less (almost no effect))
[10]; 96 g/ha
  herbicidal effect on H (barnyard grass), rating 0-5: 2 (Herbicidal rate of 20% or more and less than 40%)
[11]; 96 g/ha
  herbicidal effect on O: lambsquarters: 2 (Herbicidal rate of 20% or more and less than 40%)
[13]; 96 g/ha
  herbicidal effect rating, M: velvetleaf: 0 (Herbicidal rate of 5% or less (almost no effect))
[14]; 96 g/ha
  herbicidal effect rating, I: wild oat: 0 (Herbicidal rate of 5% or less (almost no effect))
[15]; 96 g/ha
  herbicidal effect on L: windgrass: 0 (Herbicidal rate of 5% or less (almost no effect))
[16]; 96 g/ha
  herbicidal effect on D (Chinese sprangletop), rating 0-5: 0 (Herbicidal rate of 5% or less (almost no effect))
[17]; 96 g/ha
  herbicidal effect on J: blackgrass: 0 (Herbicidal rate of 5% or less (almost no effect))
[18]; 96 g/ha
  herbicidal effect on P: chickweed: 5 (Herbicidal rate of 90% or more (almost completely withered))
[19]; 96 g/ha
  herbicidal effect on M: velvetleaf: 3 (Herbicidal rate of 40% or more and less than 70%)
[20]; 96 g/ha
  herbicidal effect rating, P: chickweed: 0 (Herbicidal rate of 5% or less (almost no effect))
[21]; 96 g/ha
  herbicidal effect on I: wild oat: 0 (Herbicidal rate of 5% or less (almost no effect))
[22]; 96 g/ha
  herbicidal effect rating, G: green foxtail: 0 (Herbicidal rate of 5% or less (almost no effect))
[23]; 96 g/ha
  herbicidal effect on K: Italian ryegrass: 2 (Herbicidal rate of 20% or more and less than 40%)
[24]; 96 g/ha
  herbicidal effect rating, L: windgrass: 0 (Herbicidal rate of 5% or less (almost no effect))
[25]; 96 g/ha
  herbicidal effect on F: southern crabgrass: 0 (Herbicidal rate of 5% or less (almost no effect))
[26]; 96 g/ha
  herbicidal effect on G: green foxtail: 0 (Herbicidal rate of 5% or less (almost no effect))
[27]; 96 g/ha
  herbicidal effect rating, J: blackgrass: 0 (Herbicidal rate of 5% or less (almost no effect))
